Experimental data: patent US12516295B2, “Generation of pancreatic progenitor cells and beta cells from human pluripotent stem cells” (The Penn State Research Foundation, priority 2018, dated 2026)

What was measured:
H1 hESCs = experiment: Growth-factor-free differentiation of hPSCs to SOX17+ DE cells, SOX17 expression by flow cytometry; format: cell-based, human; details: for effect on DE differentiation (result in words): H1 hESCs differentiated with CH, CH+DM or CH+A83-01, day 4 SOX17 by flow cytometry (FIG. 1F); for percentage of cells expressing SOX17: flow cytometry (FIG. 1C); for SOX17+ cells: H1 hESCs, dynamics (FIG. 1E; CH in presence or absence of DM)
Method: (§1) FIG. 1. Growth-factor-free differentiation of SOX17+ DE cells from hPSCs via CH and DM treatment. (A) Human 19-9-11 iPSCs were treated with 6 μM CH at day 0. After treatment, cells were collected from 3 to 21 hours (T) and RNA-seq was performed. The bars for each set from left to right are: T0, T3, T6, T9, T12, T15, T18, T21. (B) Schematic of protocol for defined, growth-factor-free differentiation of hPSCs to SOX17+ cells via treatment with CH and DM. (C-D) H1 hESCs were cultured as indicated in 2B with 1 μM DM plus different CH concentration, ranging from 2 to 10 μM. (C) On day 4 of differentiation, cells were analyzed for SOX17 expression by flow cytometry. (D) Cells were immunostained with a SOX17 antibody on day 4 of differentiation under 6 μM CH plus 1 μM DM treatment. (E) H1 hESCs were differentiated with CH in the presence or absence of DM. From day 1 to day 4, cells were analyzed for SOX17 expression by flow cytometry. (F) H1 hESCs were differentiated with CH, CH plus DM or CH plus A83-01. On day 4 of differentiation, cells were analyzed for SOX17 expression by flow cytometry.
Stage 1: On day 0, medium was changed with RPMI supplemented with 1 μM Dorsomorphin (DM) and 2-10 μM CHIR99021(CH). At day 1-4, medium was changed with RPMI supplemented with B-27 without insulin.
Cells were dissociated into single cells with Accutase for 10 min and then fixed with 1% paraformaldehyde for 30 min at room temperature and stained with primary and secondary antibodies in PBS plus 0.1% Triton X-100 and 0.5% BSA. Data were collected on a BD ACCURI C6 PLUS flow cytometer (BD Biosciences) and analyzed using FlowJo 10. FACS gating was based on the corresponding isotype antibody control.
Here we describe a differentiation protocol without using any growth factors. We first initiated DE differentiation by treating hPSCs with CH+DM. To determine optimal CH concentration for DE differentiation, H1 cells were treated by 2 to 10 μM CH in RPMI for 24 hours, followed by 3 days culture in RPMI with 2% B-27 minus insulin supplement. We analyzed the percentage of SOX17+ cells on day 4 of differentiation via flow cytometry. […] The optimal DE differentiation was achieved when hPSCs were treated by 4 or 6 μM CH (FIG. 1C). On day 4, 85% of cells expressing SOX17 when cells were treated with 6 μM CH plus 1 μM DM, whereas the percentage of cells expressing SOX17 decreased to 20% when treated with 10 μM CH plus 1 μM DM (FIG. 1C). […] Next, the dynamics of DE differentiation was investigated by analyzing SOX17 expression from day 1 to day 4. During differentiation, SOX17+ cells increased from 0% on day 1 to 78% on day 4, indicating DE was gradually developed (FIG. 1E). Furthermore, to evaluate whether our novel DE differentiation protocol depends on endogenous TGFbeta pathway, we differentiated H1 hESCs with CH, CH+DM, and CH+A83-01 (a TGFbeta inhibitor).

19-9-11 iPSCs = experiment: RNA-seq expression profile during CH induced differentiation; format: cell-based, human; details: 6 μM CH
Method: as §1
To understand RNA expression profile during CH induced differentiation, we collected cells following CH treatment every three hours for a total of eight different time points after differentiation (FIG. 1A).

Compound | effect on DE differentiation (result in words) (H1 hESCs) | Sox17+ cells generated (H1 hESCs; 10 μM CH treatment (discussion)) [%] | Sox17+ cells generated (H1 hESCs; 4 or 6 μM CH treatment (discussion)) | DE differentiation (result in words) (H1 hESCs; H1 cells, 2 to 10 μM CH in RPMI for 24 hours, SOX17+ cells on day 4) | percentage of cells expressing SOX17 (H1 hESCs; H1 cells, day 4, 6 μM CH plus 1 μM DM) [%] | percentage of cells expressing SOX17 (H1 hESCs; H1 cells, day 4, 10 μM CH plus 1 μM DM) [%] | SOX17+ cells (H1 hESCs; day 1 of differentiation) [%] | SOX17+ cells (H1 hESCs; day 4 of differentiation) [%] | Nodal expression (19-9-11 iPSCs; 21 hours after treatment, RNA-seq) | RNA expression of several components in the TGF-β signaling pathway (19-9-11 iPSCs; samples every three hours over 21 hours, RNA-seq (FIG. 1A))
c1cc(-c2cnn3cc(-c4ccc(OCCN5CCCCC5)cc4)cnc23)ccn1 [DM, 6-[4-(2-Piperidin-1-ylethoxy)phenyl]-3-pyridin-4-ylpyrazolo[1,5-a]pyrimidine] | promoted this differentiation | – | – | – | – | – | – | – | – | –
Cc1cccc(-c2nn(C(=S)Nc3ccccc3)cc2-c2ccnc3ccccc23)n1 [A83-01] | abolished DE differentiation | – | – | – | – | – | – | – | – | –
Cc1cnc(-c2cnc(NCCNc3ccc(C#N)cn3)nc2-c2ccc(Cl)cc2Cl)[nH]1 [CH, 6-[[2-[[4-(2,4-Dichlorophenyl)-5-(5-methyl-1H-imidazol-2-yl)-2-pyrimidinyl]amino]ethyl]amino]-3-pyridinecarbonitrile] | – | 6 | more than 74% | induced DE differentiation in a dose-dependent manner | 85 | 20 | 0 | 78 | upregulated | increased
